Measurements taken from US20010053848A1, “Hetero-oligomeric G protein-coupled receptors as novel drug targets” (priority 2000, published 2001).
Where two headings read alike, the source gives them in different places. Marks after values point to notes of the source that are not given here.

Key:
[1] = molecular target: HA-SSTR5 and D2R hetero-oligomer (Homo sapiens, UniProt P14416+P35346); assay: pbFRET microscopy, CHO-K1 cells co-expressing HA-SSTR5 and D2R; format: cell-based
Procedure: Generally, FRET efficiencies are determined indirectly by measuring changes in the quantum yield of any competitive donor deactivation process upon introduction of an acceptor molecule. Donor photobleaching represents such a competitive process which is exploited in pbFRET-microscopy. The effective FRET efficiency E is calculated from the photobleaching time constants of the donor obtained in the absence (τD−A) and presence (τD+A) of acceptor according to: [formula]
CHO-K1 cells, stably cotransfected with HA-hSSTR5 and D2R, were grown on glass coverslips for 24 hours, treated with various agonists/antagonists for 30 minutes at 37° C., washed and fixed in 1% paraformaldehyde for 30 minutes on ice. […] Coverslips were mounted on microscope slides and used for pbFRET-microscopy the day after.
pbFRET experiments were performed on a Leica DMLB fluorescence microscope equipped with epi-illumination. An OSRAM HBO 100 W Hg lamp was used as excitation light source and the objective was a Leica pl-fluotar 40× oil immersion lens. […] For each cell, a sequence of 20 images was acquired during donor-photobleaching. One image was collected every 4 s with exposure time of 1 s. Exposure as well as time delays were software controlled.
Images were corrected for dark current, background and flatness. For analysis of the photobleaching decay, only the high-intensity plasma membrane region was considered, low intensity background and intracellular regions were masked.
HA-hSSTR5 and D2R were specifically labeled with FITC (donor) and rhodamine (acceptor), respectively using mouse monoclonal antibody against HA and rabbit polyclonal anti-D2R antibody, followed by reaction with FITC conjugated goat anti-mouse and rhodamine conjugated goat anti-rabbit secondary antibody. […] FIG. 4A Left panel: HA-SSTR5 (visualized with mouse anti-HA mAb and FITC-conjugated goat anti-mouse IgG). FIG. 4A Middle panel: D2R (rabbit polyclonal antibody and rhodamine-conjugated goat anti-rabbit IgG). […] Magnification: ×630.
The decrease in donor fluorescence intensity due to photobleaching during prolonged exposure to excitation light was monitored in the absence (FIG. 4B, I-III) or presence (FIG. 4B, IV-VI) of acceptor, i.e. in the potential presence of an additional donor deactivation process, FRET. Cells were reacted with primary antibodies and either with FITC-conjugated goat-anti-mouse IgG (donor in the absence of acceptor) (I-III), or with both FITC-conjugated goat-anti-mouse and rhodamine-conjugated goat-anti-rabbit IgG (donor in the presence of acceptor) (IV-VI). FIG. 4B I. Photobleaching of donor in the absence of acceptor (only selection of images shown). For analysis of the photobleaching decay, only the high-intensity membrane region was considered, low intensity background and intracellular regions were masked (black). […] FIG. 4B II. The average fluorescence intensity of each image was plotted versus the time that the cell had been exposed to excitation light. […] FIG. 4B III. The decrease of fluorescence intensity was analysed for each pixel of the unmasked region and fitted to a single-exponential decay. The resulting time constants were plotted in the histogram shown. […] Photobleaching of donor in the presence of acceptor. […] FIG. 4B, IV-VI.
The photobleaching decay was analyzed for the plasma membrane regions, both on a pixel-by-pixel basis (FIG. 4, III & VI) as well as averaged over each image (FIG. 4, II & V).

[2] = molecular target: T1, delta318 SSTR5-D2R putative hetero-oligomers (Homo sapiens, UniProt P14416+P35346, DEL319-364); assay: cell-based; details: for effect on SST inhibition of forskolin-stimulated cAMP: pertussis toxin 100 ng/ml pretreatment 2 h, sulpiride 10^−4 M
T1 construct: expressed in transfected cells
T1 sequence (P14416 whole entry, stated change not applied): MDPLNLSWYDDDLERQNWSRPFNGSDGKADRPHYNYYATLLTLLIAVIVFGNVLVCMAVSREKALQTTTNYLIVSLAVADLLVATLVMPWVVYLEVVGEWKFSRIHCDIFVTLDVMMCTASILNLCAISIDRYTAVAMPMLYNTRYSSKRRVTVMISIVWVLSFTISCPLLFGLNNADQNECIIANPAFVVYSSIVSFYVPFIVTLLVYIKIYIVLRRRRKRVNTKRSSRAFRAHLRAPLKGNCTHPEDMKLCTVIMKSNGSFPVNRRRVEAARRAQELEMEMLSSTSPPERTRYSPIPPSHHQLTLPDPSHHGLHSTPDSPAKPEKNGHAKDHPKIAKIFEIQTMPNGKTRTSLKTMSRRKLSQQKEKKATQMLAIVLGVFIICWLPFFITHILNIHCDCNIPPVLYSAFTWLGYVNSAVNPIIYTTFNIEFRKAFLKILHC
T1 sequence (P35346 1-318, stated change not applied): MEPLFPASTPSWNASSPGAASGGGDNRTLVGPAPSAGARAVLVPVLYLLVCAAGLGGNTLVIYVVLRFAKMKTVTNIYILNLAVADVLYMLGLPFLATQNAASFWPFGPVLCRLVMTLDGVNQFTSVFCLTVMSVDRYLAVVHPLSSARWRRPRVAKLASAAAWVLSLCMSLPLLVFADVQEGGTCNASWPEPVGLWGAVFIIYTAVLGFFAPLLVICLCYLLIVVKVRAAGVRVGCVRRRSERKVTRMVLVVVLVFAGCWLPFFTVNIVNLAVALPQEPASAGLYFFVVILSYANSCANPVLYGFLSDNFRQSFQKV

[3] = intrathecal or epidural; post-operative and neoplastic pain; cited from earlier work
[4] = i.c.v. in monkeys; cited from earlier work
HA-SSTR5 and D2R = HA-SSTR5 and D2R (Homo sapiens, UniProt P14416+P35346); details: GTPγS 10^−4M, 30 min at 37° C.
HA-SSTR5 and D2R, sequence (P35346 whole entry): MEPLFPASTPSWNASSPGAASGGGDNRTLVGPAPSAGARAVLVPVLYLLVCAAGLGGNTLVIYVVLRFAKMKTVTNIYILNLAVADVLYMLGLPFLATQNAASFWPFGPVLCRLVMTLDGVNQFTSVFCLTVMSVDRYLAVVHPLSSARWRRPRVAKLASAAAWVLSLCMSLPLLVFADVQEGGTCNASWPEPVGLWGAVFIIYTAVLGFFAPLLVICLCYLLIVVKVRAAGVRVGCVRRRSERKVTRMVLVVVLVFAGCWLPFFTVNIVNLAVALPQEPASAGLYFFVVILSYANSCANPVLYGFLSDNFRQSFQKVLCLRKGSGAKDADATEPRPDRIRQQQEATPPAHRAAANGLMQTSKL
HA-SSTR5 and D2R, sequence (P14416 whole entry): as the sequence (P14416 whole entry, stated change not applied) above

[5] = molecular target: T2, DOR and SSTR5 hetero-oligomer (Homo sapiens, UniProt P35346+P41143); assay: Inhibition of FSK-stimulated cAMP, hSSTR5/DOR cotransfectants; format: cell-based; details: SST-14 plus naltrindole
T2 construct: expressed in transfected cells
T2 sequence (P35346 whole entry): as the sequence (P35346 whole entry) above
T2 sequence (P41143 whole entry): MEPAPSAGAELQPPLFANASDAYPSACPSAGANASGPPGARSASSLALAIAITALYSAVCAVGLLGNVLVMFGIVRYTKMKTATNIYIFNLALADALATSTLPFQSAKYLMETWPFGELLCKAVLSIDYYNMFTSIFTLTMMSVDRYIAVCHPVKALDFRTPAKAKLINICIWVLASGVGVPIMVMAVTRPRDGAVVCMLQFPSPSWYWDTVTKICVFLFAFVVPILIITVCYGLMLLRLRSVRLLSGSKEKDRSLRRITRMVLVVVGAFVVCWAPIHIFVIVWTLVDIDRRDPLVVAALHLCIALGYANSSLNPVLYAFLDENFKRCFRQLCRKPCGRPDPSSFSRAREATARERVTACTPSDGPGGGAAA

wild type hSSTR5 and DOR = wild type hSSTR5 and DOR (Homo sapiens, UniProt P35346+P41143); details: for effect on inhibition of radioligand binding induced by GTPγS: [125I] LTT SST-28 radioligand
wild type hSSTR5 and DOR, sequence (P35346 whole entry): as the sequence (P35346 whole entry) above
wild type hSSTR5 and DOR, sequence (P41143 whole entry): as the sequence (P41143 whole entry) above
Source text: LTT SST-28 binding by the cotransfectants. In order to characterize G protein function, wild type hSSTR5 and DOR were stably coexpressed in CHO-K1 cells.

[6] = molecular target: T3, delta C-tail hSSTR5 with DOR (Homo sapiens, UniProt P35346+P41143, DEL319-364); assay: Inhibition of forskolin-stimulated cAMP, delta C-tail hSSTR5 co-expressed with DOR in CHO-K1 cells; format: cell-based; details: naltrindole (10^−5 M)
T3 construct: expressed in transfected cells
T3 sequence (P35346 1-318 limits assumed, stated change not applied): as the sequence (P35346 1-318, stated change not applied) above
T3 sequence (P41143 whole entry, stated change not applied): as the sequence (P41143 whole entry) above

HA-SSTR5 and D2R hetero-oligomer, sequence (P35346 whole entry): as the sequence (P35346 whole entry) above
HA-SSTR5 and D2R hetero-oligomer, sequence (P14416 whole entry): as the sequence (P14416 whole entry, stated change not applied) above

Molecule: CCN1CCCC1CNC(=O)c1cc(S(N)(=O)=O)ccc1OC (stereo not shown) [sulpiride]
- τavg[S] mean photobleaching time constant, D − A ([1]; donor in absence of acceptor, ± SEM): D − A: 17.9 ± 0.3 S
- τavg[S] mean photobleaching time constant, D + A ([1]; donor in presence of acceptor, ± SEM): D + A: 19.2 ± 0.3 S
- effect on SST inhibition of forskolin-stimulated cAMP [2]: completely abolished

Molecule: CCc1cc(Cl)c(OC)c(C(=O)NC[C@@H]2CCCN2CC)c1O [eticlopride]
- E[%] average effective FRET-efficiency [1]: 3±3%
- τavg[S] mean photobleaching time constant, D + A [1]: D + A: 19.4 ± 0.4 S
- τavg[S] mean photobleaching time constant, D − A [1]: D − A: 18.9 ± 0.3*^) S

Molecule: C[C@@H](O)[C@@H]1NC(=O)[C@H](CCCCN)NC(=O)[C@@H](Cc2c[nH]c3ccccc23)NC(=O)[C@H](Cc2ccccc2)NC(=O)[C@@H](NC(=O)[C@H](N)Cc2ccccc2)CSSC[C@@H](C(=O)N[C@H](CO)[C@@H](C)O)NC1=O [octreotide]
- analgesic effect [3]: powerful analgesic effects
- neurobehavioral effect [4]: Parkinsonian syndrome

Molecule: NCCc1ccc(O)c(O)c1 [DA, dopamine]
- E[%] average effective FRET-efficiency [1]: 16±2%
- τavg[S] mean photobleaching time constant, D + A [1]: D + A: 21.3 ± 0.3 S
- τavg[S] mean photobleaching time constant, D − A [1]: D − A: 17.9 ± 0.3 S
- inhibition at 1 µM ([2]; CHO-K1, read-out: maximum inhibition of forskolin-stimulated cAMP): 30 ± 1.7%

Molecule: pertussis toxin
- effect on SST inhibition of forskolin-stimulated cAMP [2]: completely abolished

Molecule: Nc1nc2c(ncn2[C@@H]2O[C@H](COP(=O)(O)OP(=O)(O)OP(O)(O)=S)[C@@H](O)[C@H]2O)c(=O)[nH]1 [GTPγS]
- decrease in specific radioligand binding (HA-SSTR5 and D2R): 41±3%

Molecule: Oc1ccc2c3c1O[C@H]1c4[nH]c5ccccc5c4C[C@@]4(O)[C@@H](C2)N(CC2CC2)CC[C@]314 [naltrindole]
- SST-14 induced cAMP inhibition in the presence of the ligand [5]: 20±4%
- effect on inhibition of radioligand binding induced by GTPγS (wild type hSSTR5 and DOR): reversed
- G-protein coupling efficiency (wild type hSSTR5 and DOR; enhancement by DOR ligand): reduced coupling
- effect on SST-14 inhibition of FSK-stimulated cAMP [6]: abolished

Molecule: C[C@@H](NC(=O)[C@@H](N)Cc1ccc(O)cc1)C(=O)NCC(=O)N(C)[C@@H](Cc1ccccc1)C(=O)NCCO [DAMGO, [D-Ala^2, N-MePhe^4, Gly-ol^5]-Enkephalin]
- effect on inhibition of radioligand binding induced by GTPγS (wild type hSSTR5 and DOR): without effect
